Results from ChEMBL document CHEMBL1649540, “The novel CXCR4 antagonist KRH-3955 is an orally bioavailable and extremely potent inhibitor of human immunodeficiency virus type 1 infection: comparative studies with AMD3100” (Antimicrob Agents Chemother, 2009).
Calls of active or inactive are those of the source. No cut-off for these calls is given here.

How the values were obtained:
[1] = tested on: Human immunodeficiency virus 1; assay: Antiviral activity against HIV1 R5 infected in human PBMC assessed as inhibition of viral p24 antigen production after 7 to 10 days by ELISA; type: functional, organism-based; conditions: Human immunodeficiency virus 1, R5
[2] = tested on: Human immunodeficiency virus 1; assay: Antiviral activity against HIV1 JRCSF infected in human PBMC assessed as inhibition of viral p24 antigen production after 7 to 10 days by ELISA; type: functional; conditions: Human immunodeficiency virus 1, JRCSF ISOLATE
[3] = tested on: Human immunodeficiency virus 1; assay: Antiviral activity against HIV1 NL4-3 infected in human PBMC assessed as inhibition of viral p24 antigen production after 7 to 10 days by ELISA; type: functional, organism-based; conditions: Human immunodeficiency virus 1, NL4-3
[4] = tested on: Human immunodeficiency virus 1; assay: Antiviral activity against HIV1 X4 infected in human PBMC assessed as inhibition of viral p24 antigen production after 7 to 10 days by ELISA; type: functional, organism-based; conditions: Human immunodeficiency virus 1, X4
[5] = tested on: Human immunodeficiency virus 1; assay: Antiviral activity against HIV1 89.6 infected in human PBMC assessed as inhibition of viral p24 antigen production after 7 to 10 days by ELISA; type: functional, organism-based; conditions: Human immunodeficiency virus 1, 89.6
[6] = tested on: Human immunodeficiency virus 1; assay: Antiviral activity against HIV1 A018H infected in human PBMC assessed as inhibition of viral p24 antigen production after 7 to 10 days by ELISA; type: functional, organism-based; conditions: Human immunodeficiency virus 1, A018H
[7] = tested on: Human immunodeficiency virus 1; assay: Antiviral activity against HIV1 A018G infected in human PBMC assessed as inhibition of viral p24 antigen production after 7 to 10 days by ELISA; type: functional, organism-based; conditions: Human immunodeficiency virus 1, A018G
[8] = tested on: C-X-C chemokine receptor type 4 (Homo sapiens), P61073 [H281A]; assay: Inhibition of Mab 12G5 binding to CXCR4 H281A mutant expressed in HEK293 cells; type: cell-based
[9] = tested on: Human immunodeficiency virus 1; assay: Antiviral activity against T20-resistant HIV1 NL4-3 infected in HEK293 cells assessed as inhibition of viral replication after 2 days; type: functional, organism-based; conditions: Human immunodeficiency virus 1, NL4-3, HEK293, 48 h
[10] = tested on: C-X-C chemokine receptor type 4 (Homo sapiens), P61073 [V280A]; assay: Inhibition of Mab 12G5 binding to CXCR4 V280A mutant expressed in HEK293 cells; type: cell-based
[11] = tested on: Human immunodeficiency virus 1; assay: Antiviral activity against NNRTI-resistant HIV1 HXB2 infected in HEK293 cells assessed as inhibition of viral replication after 2 days; type: functional, organism-based; conditions: Human immunodeficiency virus 1, HXB2, HEK293, 48 h
[12] = tested on: Human immunodeficiency virus 1; assay: Antiviral activity against HIV1 HXB2 infected in HEK293 cells assessed as inhibition of viral replication after 2 days; type: functional, organism-based; conditions: Human immunodeficiency virus 1, HXB2, HEK293, 48 h
[13] = target: T1, C-X-C chemokine receptor type 4 (Homo sapiens, UniProt P61073); conditions: MOLT-4; 1000 nM
Description: Inhibition of Mab 12G5 binding to CXCR4 expressed in human MOLT4 cells at 1000 nM measured post drug washout by FACS analysis

[14] = tested on: Human immunodeficiency virus 1; assay: Antiviral activity against HIV1 NL4-3 infected in HEK293 cells assessed as inhibition of viral replication after 2 days; type: functional, organism-based; conditions: Human immunodeficiency virus 1, NL4-3, HEK293, 48 h
[15] = tested on: Human immunodeficiency virus 1; assay: Antiviral activity against NRTI-resistant HIV1 HXB2 infected in HEK293 cells assessed as inhibition of viral replication after 2 days; type: functional, organism-based; conditions: Human immunodeficiency virus 1, HXB2, HEK293, 48 h
[16] = tested on: Human immunodeficiency virus 1; assay: Antiviral activity against PI-resistant HIV1 HXB2 infected in HEK293 cells assessed as inhibition of viral replication after 2 days; type: functional, organism-based; conditions: Human immunodeficiency virus 1, HXB2, HEK293, 48 h
[17] = tested on: C-X-C chemokine receptor type 4 (Homo sapiens), P61073 [D181A]; assay: Inhibition of Mab 12G5 binding to CXCR4 D181A mutant expressed in HEK293 cells; type: cell-based
[18] = tested on: Human immunodeficiency virus 1; assay: Antiviral activity against multidrug resistant HIV1 HXB2 infected in HEK293 cells assessed as inhibition of viral replication after 2 days; type: functional, organism-based; conditions: Human immunodeficiency virus 1, HXB2, HEK293, 48 h
[19] = target: T1, C-X-C chemokine receptor type 4; conditions: MOLT-4; 1000 nM; remark: listed apart in the source
Description: Inhibition of Mab 12G5 binding to CXCR4 expressed in human MOLT4 cells at 1000 nM by FACS analysis

[20] = tested on: C-X-C chemokine receptor type 4 (Homo sapiens), P61073 [V112A]; assay: Inhibition of Mab 12G5 binding to CXCR4 V112A mutant expressed in HEK293 cells; type: cell-based
[21] = target: T1, C-X-C chemokine receptor type 4; assay: Displacement of [125I]SDF-1alpha form CXCR4 expressed in CHO cells at 0.1 to 1000 nmol/L by scintillation counting; type: cell-based

T1 sequence (P61073 whole entry): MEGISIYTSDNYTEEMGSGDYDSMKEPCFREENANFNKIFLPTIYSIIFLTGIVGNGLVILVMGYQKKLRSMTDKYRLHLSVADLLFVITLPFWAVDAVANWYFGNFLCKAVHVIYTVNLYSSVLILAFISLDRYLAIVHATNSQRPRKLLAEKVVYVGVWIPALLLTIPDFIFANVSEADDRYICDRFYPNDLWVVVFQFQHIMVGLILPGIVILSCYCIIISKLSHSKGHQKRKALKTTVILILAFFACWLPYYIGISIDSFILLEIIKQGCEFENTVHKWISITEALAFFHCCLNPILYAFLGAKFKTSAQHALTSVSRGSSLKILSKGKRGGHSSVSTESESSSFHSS
Sequence of C-X-C chemokine receptor type 4 (Homo sapiens), P61073 [V112A] (P61073 whole entry V112A): as the sequence (P61073 whole entry) above, with V112A counted along it
Sequence of C-X-C chemokine receptor type 4 (Homo sapiens), P61073 [H281A] (P61073 whole entry H281A): as the sequence (P61073 whole entry) above, with H281A counted along it
Sequence of C-X-C chemokine receptor type 4 (Homo sapiens), P61073 [V280A] (P61073 whole entry V280A): as the sequence (P61073 whole entry) above, with V280A counted along it
Sequence of C-X-C chemokine receptor type 4 (Homo sapiens), P61073 [D181A] (P61073 whole entry D181A): as the sequence (P61073 whole entry) above, with D181A counted along it

SMILES | EC50 [1] [nM] | EC50 [2] [nM] | EC50 [3] [nM] | EC50 [4] [nM] | EC50 [5] [nM] | EC50 [6] [nM] | EC50 [7] [nM] | further results
NCCCCN(Cc1nc2ccccc2[nH]1)[C@H]1CCCc2cccnc21 [MAVORIXAFOR] | > 200 | > 200 | 35 | 15 | 55 | – | – | –
CC(C)(C)NC(=O)[C@@H]1C[C@@H]2CCCC[C@@H]2CN1C[C@@H](O)[C@H](Cc1ccccc1)NC(=O)[C@H](CC(N)=O)NC(=O)c1ccc2ccccc2n1 | 8 | 2.6 | 9 | 29 | 9.9 | – | – | –
COC[C@@H](c1ccc(C(F)(F)F)cc1)N1CCN(C2(C)CCN(C(=O)c3c(C)ncnc3C)CC2)C[C@@H]1C [VICRIVIROC] | 1.2 | 0.37 | > 1000 | > 1000 | > 1000 | – | – | –
Cc1cn([C@H]2C[C@H](N=[N+]=[N-])[C@@H](CO)O2)c(=O)[nH]c1=O [ZIDOVUDINE] | 6.2 | 0.96 | 11 | 8 | 7.4 | 1.9 | 87000 | –
c1cc(CN2CCCNCCNCCCNCC2)ccc1CN1CCCNCCNCCCNCC1 [PLERIXAFOR] | > 200 | > 200 | 41 | 15 | 44 | 38 | 32 | IC90 [8]: 572 nM; IC50 [9]: 2.3 nM; IC90 [10]: 821 nM; IC50 [11]: 7 nM; IC50 [12]: 6.2 nM; inhibition [13]: inactive; IC50 [14]: 4.6 nM; IC50 [15]: 9 nM; IC50 [16]: 9.2 nM; IC90 [17]: 796 nM; IC50 [18]: 5.3 nM; inhibition [19]: Active; IC90 [20]: 821 nM; Activity [21]: inactive
